Data published in ChEMBL document CHEMBL1201862, “PubChem BioAssay data set” (2004).
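Five concentrations, 48 hours, 96-well plates. GI50 marks 50% less growth.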 The source made the active and inactive calls. Cut-off read from the data, not from the text of the source: active = GI50 up to about 1.1 µM and inactive = higher.

Key:
Experiment in all cases: NCI tumour cell line growth inhibition, 48 h
[1] = system: MOLT-4
[2] = system: HCT-116
[3] = system: HT-29
[4] = system: 786-0
[5] = system: SK-MEL-28
[6] = system: MDA-N
[7] = system: SK-MEL-5
[8] = system: RPMI-8226
[9] = system: SK-MEL-2
[10] = system: NCI-H23
[11] = system: A498
[12] = system: SN12C
[13] = system: NCI-H522
[14] = system: OVCAR-5
[15] = system: K562
[16] = system: OVCAR-8
[17] = system: UACC-62
[18] = system: DU-145
[19] = system: OVCAR-3
[20] = system: Malme-3M
[21] = system: Hs-578T
[22] = system: KM12
[23] = system: IGROV-1
[24] = system: T47D
[25] = system: NCI/ADR-RES
[26] = system: A549
[27] = system: MDA-MB-435
[28] = system: CAKI-1
[29] = system: U-251
[30] = system: CCRF-CEM
[31] = system: SF-539
[32] = system: RXF 393
[33] = system: UACC-257
[34] = system: SF-268
[35] = system: ACHN
[36] = system: SF-295
[37] = system: HOP-92
[38] = system: COLO 205
[39] = system: PC-3
[40] = system: SR
[41] = system: HCT-15
[42] = system: OVCAR-4
[43] = system: BT-549
[44] = system: SNB-19
[45] = system: M14
[46] = system: MCF7
[47] = system: SNB-75
[48] = system: HL-60
[49] = system: NCI-H460
[50] = system: HOP-62
[51] = system: MDA-MB-231
[52] = system: EKVX
[53] = system: SW-620
[54] = system: UO-31
[55] = system: SK-OV-3
[56] = system: NCI-H226
[57] = system: TK-10
[58] = system: LOX IMVI

## COC(=O)C1=C(C)NC2=C(C(=O)c3ccccc32)C1c1c[nH]nc1-c1ccccc1 (stereo not given)
[1]
  GI50: 24.8 µM (inactive)
[2]
  GI50: > 100 µM (inactive)
[3]
  GI50: 24.3 µM (inactive)
[4]
  GI50: > 100 µM (inactive)
[5]
  GI50: 49.4 µM (inactive)
[6]
  GI50: 51.5 µM (inactive)
[7]
  GI50: 31.8 µM (inactive)
[8]
  GI50: 49 µM (inactive)
[9]
  GI50: 33.7 µM (inactive)
[10]
  GI50: > 100 µM (inactive)
[11]
  GI50: 48.5 µM (inactive)
[12]
  GI50: 72.9 µM (inactive)
[13]
  GI50: 19.7 µM (inactive)
[14]
  GI50: > 100 µM (inactive)
[15]
  GI50: > 100 µM (inactive)
[16]
  GI50: 38.1 µM (inactive)
[17]
  GI50: 35.6 µM (inactive)
[18]
  GI50: > 100 µM (inactive)
[19]
  GI50: 48.6 µM (inactive)
[20]
  GI50: 25.2 µM (inactive)
[21]
  GI50: 21.5 µM (inactive)
[22]
  GI50: 86.7 µM (inactive)
[23]
  GI50: 20.2 µM (inactive)
[24]
  GI50: 90.6 µM (inactive)
[25]
  GI50: 42.1 µM (inactive)
[26]
  GI50: 47.6 µM (inactive)
[27]
  GI50: 57.4 µM (inactive)
[28]
  GI50: 63.8 µM (inactive)
[29]
  GI50: 72.1 µM (inactive)
[30]
  GI50: 40.3 µM (inactive)
[31]
  GI50: 29.9 µM (inactive)
[32]
  GI50: 43.4 µM (inactive)
[33]
  GI50: 70.5 µM (inactive)
[34]
  GI50: 26.2 µM (inactive)
[35]
  GI50: 35.2 µM (inactive)
[36]
  GI50: > 100 µM (inactive)
[37]
  GI50: > 100 µM (inactive)
[38]
  GI50: 20.9 µM (inactive)
[39]
  GI50: 52.1 µM (inactive)
[40]
  GI50: 24.4 µM (inactive)
[41]
  GI50: 62.5 µM
[42]
  GI50: 54.7 µM (inactive)
[43]
  GI50: > 100 µM (inactive)
[44]
  GI50: 41.5 µM (inactive)
[45]
  GI50: > 100 µM (inactive)
[46]
  GI50: 44.7 µM (inactive)
[47]
  GI50: 13.3 µM (inactive)
[48]
  GI50: 39.8 µM (inactive)
[49]
  GI50: 51.9 µM (inactive)
[50]
  GI50: 64.9 µM (inactive)
[51]
  GI50: 30.1 µM (inactive)
[52]
  GI50: 16.1 µM (inactive)
[53]
  GI50: 59.3 µM (inactive)
[54]
  GI50: > 100 µM (inactive)
[55]
  GI50: > 100 µM (inactive)
[56]
  GI50: 41.2 µM (inactive)

## CCOc1cc(-c2nc3ccccn3c2/N=C/c2cc(Br)ccc2O)ccc1O
[57]
  GI50: 21.1 µM (inactive)
[1]
  GI50: 45.7 µM (inactive)
[2]
  GI50: 30.8 µM (inactive)
[3]
  GI50: 42.1 µM (inactive)
[4]
  GI50: 25.1 µM (inactive)
[5]
  GI50: > 100 µM (inactive)
[6]
  GI50: 46.1 µM (inactive)
[58]
  GI50: 23.2 µM (inactive)
[7]
  GI50: 30.3 µM (inactive)
[8]
  GI50: 26.5 µM (inactive)
[9]
  GI50: 46.1 µM (inactive)
[10]
  GI50: 39.8 µM (inactive)
[11]
  GI50: 31.6 µM (inactive)
[12]
  GI50: 31.3 µM (inactive)
[13]
  GI50: 35.9 µM (inactive)
[14]
  GI50: 73.5 µM (inactive)
[15]
  GI50: 24.2 µM (inactive)
[16]
  GI50: 21.2 µM (inactive)
[17]
  GI50: 23.9 µM (inactive)
[18]
  GI50: 12.5 µM (inactive)
[19]
  GI50: 9.29 µM (inactive)
[20]
  GI50: 41.1 µM (inactive)
[21]
  GI50: 61.4 µM (inactive)
[23]
  GI50: 20.6 µM (inactive)
[24]
  GI50: 2.37 µM (inactive)
[25]
  GI50: 27.7 µM (inactive)
[26]
  GI50: 37.9 µM (inactive)
[27]
  GI50: 66.8 µM (inactive)
[28]
  GI50: 67.1 µM (inactive)
[29]
  GI50: 17.5 µM (inactive)
[30]
  GI50: > 100 µM (inactive)
[31]
  GI50: 29.6 µM (inactive)
[32]
  GI50: 16 µM (inactive)
[33]
  GI50: 18.1 µM (inactive)
[34]
  GI50: 19.1 µM (inactive)
[35]
  GI50: 47.5 µM (inactive)
[36]
  GI50: 58.2 µM (inactive)
[37]
  GI50: 21.1 µM (inactive)
[38]
  GI50: > 100 µM (inactive)
[39]
  GI50: 18.8 µM (inactive)
[40]
  GI50: 35.6 µM (inactive)
[41]
  GI50: 8.51 µM
[42]
  GI50: 14.1 µM (inactive)
[43]
  GI50: 29.6 µM (inactive)
[44]
  GI50: 21.3 µM (inactive)
[45]
  GI50: 36.1 µM (inactive)
[46]
  GI50: 13.9 µM (inactive)
[47]
  GI50: 5.62 µM (inactive)
[48]
  GI50: 15 µM (inactive)
[49]
  GI50: 58.3 µM (inactive)
[50]
  GI50: 20.3 µM (inactive)
[51]
  GI50: 30.5 µM (inactive)
[52]
  GI50: 23 µM (inactive)
[53]
  GI50: 65 µM (inactive)
[54]
  GI50: 27 µM (inactive)
[55]
  GI50: 29.2 µM (inactive)
[56]
  GI50: 93.3 µM (inactive)

## O=C(/C=C/c1ccc(O)c(-c2cc(C(=O)/C=C/c3ccc(O)cc3)c(O)cc2O)c1)c1ccc(O)cc1O [RHUSCHALCONE VI]
[57]
  GI50: > 50 µM (inactive)
[1]
  GI50: 16.1 µM (inactive)
[2]
  GI50: 11.5 µM (inactive)
[3]
  GI50: 10.1 µM (inactive)
[4]
  GI50: 47.6 µM (inactive)
[5]
  GI50: 10.4 µM (inactive)
[6]
  GI50: 18.3 µM (inactive)
[58]
  GI50: 14.5 µM (inactive)
[7]
  GI50: 27.8 µM (inactive)
[8]
  GI50: 18.6 µM (inactive)
[9]
  GI50: 20.7 µM (inactive)
[10]
  GI50: 23.9 µM (inactive)
[11]
  GI50: > 50 µM (inactive)
[12]
  GI50: 20.4 µM (inactive)
[13]
  GI50: 37.4 µM (inactive)
[14]
  GI50: > 50 µM (inactive)
[15]
  GI50: 13.6 µM (inactive)
[16]
  GI50: 11.7 µM (inactive)
[17]
  GI50: 9.16 µM (inactive)
[18]
  GI50: 40.5 µM (inactive)
[19]
  GI50: 16.2 µM (inactive)
[20]
  GI50: 22.1 µM (inactive)
[21]
  GI50: 30 µM (inactive)
[22]
  GI50: 13.3 µM (inactive)
[23]
  GI50: 24.5 µM (inactive)
[24]
  GI50: 33.3 µM (inactive)
[25]
  GI50: > 50 µM (inactive)
[26]
  GI50: > 50 µM (inactive)
[27]
  GI50: 21.4 µM (inactive)
[28]
  GI50: > 50 µM (inactive)
[29]
  GI50: 15.8 µM (inactive)
[30]
  GI50: 10.1 µM (inactive)
[31]
  GI50: 11.7 µM (inactive)
[32]
  GI50: 17.2 µM (inactive)
[33]
  GI50: > 50 µM (inactive)
[34]
  GI50: 17.5 µM (inactive)
[35]
  GI50: > 50 µM (inactive)
[36]
  GI50: 37.5 µM (inactive)
[37]
  GI50: 24.6 µM (inactive)
[38]
  GI50: 10.5 µM (inactive)
[39]
  GI50: 22.5 µM (inactive)
[40]
  GI50: 11.4 µM (inactive)
[41]
  GI50: > 50 µM
[42]
  GI50: 17.9 µM (inactive)
[43]
  GI50: 15.5 µM (inactive)
[44]
  GI50: 28.6 µM (inactive)
[45]
  GI50: 49.1 µM (inactive)
[46]
  GI50: 20.2 µM (inactive)
[47]
  GI50: 13.3 µM (inactive)
[48]
  GI50: 17.3 µM (inactive)
[49]
  GI50: > 50 µM (inactive)
[50]
  GI50: 30.9 µM (inactive)
[51]
  GI50: 29.7 µM (inactive)
[52]
  GI50: > 50 µM (inactive)
[53]
  GI50: 19.5 µM (inactive)
[54]
  GI50: > 50 µM (inactive)
[55]
  GI50: 16.1 µM (inactive)
